Tests used:
[1] = Toxicity in po dosed rat; assay type: organism-based; conditions: in vivo
Rattus norvegicus [2] = test: Antiinflammatory activity in rat assessed as inhibition of carrageenan-induced paw edema at 50 mg/kg, po administered as two doses 3 and 0.5 hr prior to challenge measured 2.5 hrs post challenge; assay type: functional
Rattus norvegicus [3] = test: Antiinflammatory activity in rat assessed as inhibition of carrageenan-induced paw edema at 100 mg/kg, po administered as two doses 3 and 0.5 hr prior to challenge measured 2.5 hrs post challenge; assay type: functional
Rattus norvegicus [4] = test: Antiinflammatory activity in adrenalectomized rat assessed as inhibition of carrageenan-induced paw edema at 100 mg/kg, po administered as two doses 3 and 0.5 hr prior to challenge measured 2.5 hrs post challenge; assay type: functional
Rattus norvegicus [5] = test: Antiinflammatory activity in rat assessed as inhibition of carrageenan-induced paw edema at 25 mg/kg, po administered as two doses 3 and 0.5 hr prior to challenge measured 2.5 hrs post challenge; assay type: functional
Rattus norvegicus [6] = test: Antiinflammatory activity in adrenalectomized rat assessed as inhibition of carrageenan-induced paw edema at 25 mg/kg, po administered as two doses 3 and 0.5 hr prior to challenge measured 2.5 hrs post challenge; assay type: functional
Rattus norvegicus [7] = test: Antiinflammatory activity in adrenalectomized rat assessed as inhibition of carrageenan-induced paw edema at 50 mg/kg, po administered as two doses 3 and 0.5 hr prior to challenge measured 2.5 hrs post challenge; assay type: functional
Rattus norvegicus [8] = test: Antiinflammatory activity in adrenalectomized rat assessed as inhibition of carrageenan-induced paw edema administered orally 1 hr prior to challenge measured 2.5 hrs post challenge; assay type: functional; conditions: po
Rattus norvegicus [9] = test: Antiinflammatory activity in adrenalectomized rat assessed as inhibition of carrageenan-induced paw edema administered orally 1 hr prior to challenge measured 5 hrs post challenge; assay type: functional; conditions: po

SMILES	LD50 [1] [mg/kg]	inhibition in vivo at 50 mg/kg (Rattus norvegicus [2]) [%]	further results
CC(C(=O)O)c1ccc2nc(-c3ccc(F)cc3)oc2c1 (stereo not drawn)	1200	48	–
Cc1ccc2nc(-c3ccccc3)oc2c1	< 1600	10	–
O=C(O)Cc1ccc2nc(-c3ccccc3)oc2c1	1200	–	inhibition in vivo at 100 mg/kg (Rattus norvegicus [3]): 60%; inhibition in vivo at 100 mg/kg (Rattus norvegicus [4]): 50%
Cl.NCCc1ccc2nc(-c3ccccc3)oc2c1	300	–	inhibition in vivo at 25 mg/kg (Rattus norvegicus [5]): 59%; inhibition in vivo at 25 mg/kg (Rattus norvegicus [6]): 0%
CCOC(=O)Cc1ccc2nc(-c3ccccc3)oc2c1	1200	–	inhibition in vivo at 100 mg/kg (Rattus norvegicus [3]): 61%
OCCc1ccc2nc(-c3ccccc3)oc2c1	> 1600	–	inhibition in vivo at 100 mg/kg (Rattus norvegicus [3]): 47%
CC(CO)c1ccc2nc(-c3ccccc3)oc2c1 (stereo not drawn)	800	–	inhibition in vivo at 100 mg/kg (Rattus norvegicus [3]): 61%
CC(C(=O)O)c1ccc2nc(-c3ccccc3)oc2c1 (stereo not drawn)	600	60	–
CC(C(=O)O)c1ccc2nc(-c3ccccc3Cl)oc2c1 (stereo not drawn)	1200	41	inhibition in vivo at 50 mg/kg (Rattus norvegicus [7]): 58%; ED30 (Rattus norvegicus [8]): 1.98 mg/kg; ED30 (Rattus norvegicus [9]): 23 mg/kg
CC(C(=O)O)c1ccc2nc(-c3ccc(Cl)cc3)oc2c1 (stereo not drawn)	1200	28	ED30 (Rattus norvegicus [8]): 2.4 mg/kg; ED30 (Rattus norvegicus [9]): 11 mg/kg
CC(C(=O)O)c1ccc2nc(-c3ccc(Cl)cc3Cl)oc2c1 (stereo not drawn)	300	–	inhibition in vivo at 25 mg/kg (Rattus norvegicus [5]): 49%; inhibition in vivo at 25 mg/kg (Rattus norvegicus [6]): 56%
Cc1ccc(-c2nc3ccc(C(C)C(=O)O)cc3o2)cc1 (stereo not drawn)	1200	43	–
CC(CN)c1ccc2nc(-c3ccccc3)oc2c1.O=C(O)CCC(=O)O (stereo not drawn)	300	–	inhibition in vivo at 25 mg/kg (Rattus norvegicus [5]): 0%
CC(C(=O)O)c1ccc2oc(-c3ccc(Cl)cc3)nc2c1 (stereo not drawn) [BENOXAPROFEN]	800	78	ED30 (Rattus norvegicus [8]): 13.4 mg/kg; ED30 (Rattus norvegicus [9]): 10.6 mg/kg
C[C@]12CCC(=O)C=C1CC[C@@H]1[C@@H]2[C@@H](O)C[C@@]2(C)[C@H]1CC[C@]2(O)C(=O)CO [HYDROCORTISONE]	–	42	–
CCCCC1C(=O)N(c2ccccc2)N(c2ccccc2)C1=O [PHENYLBUTAZONE]	–	39	ED30 (Rattus norvegicus [8]): 23.8 mg/kg; ED30 (Rattus norvegicus [9]): 52.6 mg/kg; inhibition in vivo at 100 mg/kg (Rattus norvegicus [4]): 60%
